In data set [1] the test system is Plasmopara viticola. Nature of the data set: Plasmopara test (grapevine)/protective. The conditions noted are these: Plasmopara viticola, 144 h, protective, application rate 100 g/ha, evaluation 6 days after inoculation, read-out: Efficacy in %. It is filed as in vivo. The method, then:
Plasmopara Test (Grapevine)/Protective
(§1) Solvent: 47 parts by weight of acetone
(§2) Emulsifier: 3 parts by weight of alkylaryl polyglycol ether
(§3) To produce a suitable preparation of active compound, 1 part by weight of active compound is mixed with the stated amounts of solvent and emulsifier, and the concentrate is diluted with water to the desired concentration.
To test for protective activity, young plants are sprayed with the preparation of active compound at the stated application rate. After the spray coating has dried on, the plants are inoculated with an aqueous spore suspension of Plasmopara viticola and then remain in an incubation cabin at approximately 20° C. and 100% relative atmospheric humidity for 1 day. The plants are subsequently placed in a greenhouse at approximately 21° C. and approximately 90% relative atmospheric humidity for 5 days. The plants are then moistened and placed in an incubation cabin for 1 day.
Evaluation is carried out 6 days after the inoculation. 0% means an efficacy which corresponds to that of the control, whereas an efficacy of 100% means that no infection is observed.

For data set [2], the system named is Venturia inaequalis. The data set is described as follows: Venturia test (apple)/protective. Format: in vivo. To be noted: Venturia inaequalis, 288 h, protective, application rate 10 g/ha, evaluation 12 days after inoculation, read-out: Efficacy in %. The method, then:
Venturia Test (Apple)/Protective
as §1, §2, §3
To test for protective activity, young plants are sprayed with the preparation of active compound at the stated application rate. After the spray coating has dried on, the plants are inoculated with an aqueous conidia suspension of the causative organism of apple scab Venturia inaequalis and then remain in an incubation cabin at approximately 20° C. and 100% relative atmospheric humidity for 1 day.
The plants are then placed in a greenhouse at approximately 21° C. and a relative atmospheric humidity of approximately 90%.
Evaluation is carried out 12 days after the inoculation. 0% means an efficacy which corresponds to that of the control, whereas an efficacy of 100% means that no infection is observed.

The subject of data set [3] is Puccinia recondita. The data set is described as follows: Puccinia test (wheat)/protective. Format: in vivo. The conditions noted are these: Puccinia recondita, 240 h, protective, application rate 250 g/ha, evaluation 10 days after inoculation, read-out: Efficacy in %. As for the experimental part: Puccinia Test (Wheat)/Protective
(§4) Solvent: 25 parts by weight of N,N-dimethylacetamide
(§5) Emulsifier: 0.6 part by weight of alkylaryl polyglycol ether
as §3
To test for protective activity, young plants are sprayed with the preparation of active compound at the stated application rate. After the spray coating has dried on, the plants are sprayed with a conidia suspension of Puccinia recondita. The plants remain in an incubation cabin at 20° C. and 100% relative atmospheric humidity for 48 hours.
The plants are then placed in a greenhouse at a temperature of approximately 20° C. and a relative atmospheric humidity of 80% to promote the development of rust pustules.
(§6) Evaluation is carried out 10 days after the inoculation. 0% means an efficacy which corresponds to that of the control, whereas an efficacy of 100% means that no infection is observed.

Data set [4] can be described thus: logP determination by HPLC (EEC Directive 79/831 Annex V. A8). It is filed as physicochemical. To be noted: HPLC gradient method, acetonitrile/0.1% aqueous phosphoric acid. As for the experimental part:
The logP values are determined in accordance with EEC Directive 79/831 Annex V. A8 by HPLC (gradient method, acetonitrile/0.1% aqueous phosphoric acid).

Data set [5] deals with Puccinia recondite. The data set is described as follows: Puccinia test (wheat)/curative. Format: in vivo. To be noted: curative, application rate 250 g/ha, evaluation 10 days after inoculation. As for the experimental part:
Puccinia Test (Wheat)/Curative
as §4, §5, §3
To test for curative activity, young plants are sprayed with a conidia suspension of Puccinia recondite. The plants remain in an incubation cabin at 20° C. and 100% relative atmospheric humidity for 48 hours. The plants are subsequently sprayed with the preparation of active compound at the stated application rate.
The plants are placed in a greenhouse at a temperature of approximately 20° C. and a relative atmospheric humidity of approximately 80% to promote the development of rust pustules.
as §6

We go through 4 compounds from US6632817B2, “Fluoromethoximino compounds” (priority 1997, dated 2003).

In the case of `COC(=O)C(=NOCF)c1ccccc1Oc1ncnc(Oc2ccccc2Cl)c1F` [Example 1, methyl {2-[6-(2-chlorophenoxy)-5-fluoropyrimidin-4-yloxy]-phenyl}-fluoromethoxyimino-acetate], the melting point was in the range of 153 to 155 °C. In addition, the pest or weed control at 100 g/ha in data set [1] is at least 98%. In addition, the pest or weed control at 10 g/ha in data set [2] is at least 99%. The pest or weed control at 250 g/ha in data set [3] is at least 80%.
In the case of `CNC(=O)/C(=N\OCF)c1ccccc1Oc1ncnc(Oc2ccccc2OC(F)F)c1F` [Example 6], in data set [4], the chromatographic logP was 2.9. For the same compound, the pest or weed control at 100 g/ha in data set [1] is at least 98%. The pest or weed control at 10 g/ha in data set [2] is at least 99%. Moreover, the pest or weed control at 250 g/ha in data set [3] was at least 80%. This compound had an Efficacy in % in data set [5] of 100%.
For `CNC(=O)C(=NOCF)c1ccccc1Oc1ncnc(Oc2ccccc2Cl)c1F` [Example 2, 2-{2-[6-(2-chlorophenoxy)-5-fluoropyrimidin-4-yloxy]-phenyl}-2-fluoromethoxyimino-N-methylacetamide], the melting point fell in the range of 128 to 129 °C. Besides, the pest or weed control at 100 g/ha in data set [1] is at least 98%. In data set [2], the pest or weed control at 10 g/ha is at least 99%. Moreover, the pest or weed control at 250 g/ha in data set [3] was at least 80%. The Efficacy in % in data set [5] was found to be 100%.
Take `CNC(=O)/C(=N\OCF)c1ccccc1Oc1nc(-c2ccc(OC(F)(F)F)cc2)ns1` [Example 22]: the chromatographic logP in data set [4] was found to be 3.8. Moreover, in data set [1], the pest or weed control at 100 g/ha is at least 98%. The pest or weed control at 10 g/ha in data set [2] is at least 99%. Also, the pest or weed control at 250 g/ha in data set [3] was at least 80%. In data set [5], the Efficacy in % is on record as 100%.
